Results reported in US20260007681A1, “INDOLE DERIVATIVES AS ESTROGEN RECEPTOR DEGRADERS” (REGENTS OF THE UNIVERSITY OF MICHIGAN, priority 2022, published 2026).
Like-named read-outs stand apart in the source and are kept apart here.

How the values were obtained:
[1] = Cell growth assay (WST-8) (Compounds B1-B278); format: cell-based; conditions: T47D cell line, WST-8, 4 days, read-out: Cell Growth Inhibition in T47D cell line IC50
How it was run: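 Read-out is WST-8 absorbance at 450 nm (2.5 h, 37° C) as a fraction of vehicle control, from three separate repeats. Compound exposure lasted 4 days, starting one day after plating 1500 cells/well.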

ER = ER (Homo sapiens (Human), UniProt P03372); experiment: In-cell western blot analysis of relative ER percentage (Compounds B1-B278); format: cell-based; conditions: ER degradation, 16 hours, read-out: ICW DC50
Sequence of ER (P03372 whole entry): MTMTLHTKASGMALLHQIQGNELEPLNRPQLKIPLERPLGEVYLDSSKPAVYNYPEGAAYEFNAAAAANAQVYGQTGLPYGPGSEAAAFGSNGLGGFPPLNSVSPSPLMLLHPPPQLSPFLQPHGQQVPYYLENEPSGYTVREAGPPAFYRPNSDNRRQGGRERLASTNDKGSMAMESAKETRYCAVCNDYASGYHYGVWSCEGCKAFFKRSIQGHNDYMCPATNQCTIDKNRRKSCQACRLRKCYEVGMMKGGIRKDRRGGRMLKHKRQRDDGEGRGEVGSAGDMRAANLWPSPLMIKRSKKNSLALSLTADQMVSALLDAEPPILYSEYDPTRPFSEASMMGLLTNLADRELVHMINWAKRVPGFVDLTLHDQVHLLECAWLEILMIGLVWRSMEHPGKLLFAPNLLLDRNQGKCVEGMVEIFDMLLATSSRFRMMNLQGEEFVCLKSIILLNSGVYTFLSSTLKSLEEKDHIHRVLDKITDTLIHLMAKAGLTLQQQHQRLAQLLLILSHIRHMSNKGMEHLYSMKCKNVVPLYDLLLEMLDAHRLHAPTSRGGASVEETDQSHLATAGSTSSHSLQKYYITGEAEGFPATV
How it was run: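 In-cell western: after 16 h compound exposure (0.5% DMSO final), fixed and permeabilized cells are probed with anti-ER plus anti-GAPDH and near-infrared secondaries. Relative ER percentage compares treated wells against untreated and DMSO wells taken as 100%; seeding 40,000 or 10,000 cells/well.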

| Compound | DC50 (ER) | IC50 ([1]; 96 h) | IC50 [1] |
| --- | --- | --- | --- |
| COc1c2c(cc3c1CN(C1CCC(=O)NC1=O)C3=O)CN(CC(=O)N1CCC3(CC1)CCN(c1cc(F)c([C@@H]4c5[nH]c6ccccc6c5C[C@@H](C)N4CC(F)F)c(F)c1)CC3)C2 (stereo partly drawn) [Compound B130, 3-(6-(2-(9-(4-((1R,3R)-2-(2,2-difluoroethyl)-3-methyl-2,3,4,9-tetrahydro-1H-pyrido[3,4-b]indol-1-yl)-3,5-difluorophenyl)-3,9-diazaspiro[5.5]undecan-3-yl)-2-oxoethyl)-4-methoxy-1-oxo-3,5,6,7-tetrahydropyrrolo[3,4-f]isoindol-2(1H)-yl)piperidine-2,6-dione] | 0.01 to 0.1 µM | 0.001 to 0.01 µM |  |
| C[C@@H]1Cc2c([nH]c3ccccc23)[C@@H](c2cnc(N3CCC4(CC3)CC(CN3CCN5c6cc7c(cc6OC[C@@H]5C3)C(=O)N(C3CCC(=O)NC3=O)C7)C4)nc2)N1CC(F)F (stereo partly drawn) [Compound B135, 3-((S)-3-((7-(5-((1R,3R)-2-(2,2-difluoroethyl)-3-methyl-2,3,4,9-tetrahydro-1H-pyrido[3,4-b]indol-1-yl)pyrimidin-2-yl)-7-azaspiro[3.5]nonan-2-yl)methyl)-8-oxo-1,2,3,4,4a,5,8,10-octahydro-9H-pyrazino[1′,2′:4,5][1,4]oxazino[2,3-f]isoindol-9-yl)piperidine-2,6-dione] | < 0.01 µM | 0.001 to 0.01 µM |  |
| C[C@@H]1Cc2c([nH]c3ccccc23)[C@@H](c2cnc(N3CCC4(CCC(CN5CCN6c7cc8c(cc7OC[C@@H]6C5)C(=O)N(C5CCC(=O)NC5=O)C8)CC4)CC3)nc2)N1CC(F)F (stereo partly drawn) [Compound B136, 3-((S)-3-((3-(5-((1R,3R)-2-(2,2-difluoroethyl)-3-methyl-2,3,4,9-tetrahydro-1H-pyrido[3,4-b]indol-1-yl)pyrimidin-2-yl)-3-azaspiro[5.5]undecan-9-yl)methyl)-8-oxo-1,2,3,4,4a,5,8,10-octahydro-9H-pyrazino[1′,2′:4,5][1,4]oxazino[2,3-f]isoindol-9-yl)piperidine-2,6-dione] | 0.01 to 0.1 µM | > 0.01 µM |  |
| C[C@@H]1Cc2c([nH]c3ccccc23)[C@@H](c2cnc(N3CCC4(CCC(CN5CCN6c7cc8c(cc7OC[C@@H]6C5)C(=O)N(C5CCC(=O)NC5=O)C8)CC4)CC3)nc2)N1CC(C)(C)F (stereo partly drawn) [Compound B137, 3-((S)-3-((3-(5-((1R,3R)-2-(2-fluoro-2-methylpropyl)-3-methyl-2,3,4,9-tetrahydro-1H-pyrido[3,4-b]indol-1-yl)pyrimidin-2-yl)-3-azaspiro[5.5]undecan-9-yl)methyl)-8-oxo-1,2,3,4,4a,5,8,10-octahydro-9H-pyrazino[1′,2′:4,5][1,4]oxazino[2,3-f]isoindol-9-yl)piperidine-2,6-dione] | 0.01 to 0.1 µM | > 0.01 µM |  |
| C[C@@H]1Cc2c([nH]c3ccccc23)[C@@H](c2cnc(N3CCC4(CCC(N5CCN6c7cc8c(cc7OC[C@@H]6C5)C(=O)N(C5CCC(=O)NC5=O)C8)CC4)CC3)nc2)N1CC(F)F (stereo partly drawn) [Compound B138, 3-((S)-3-(3-(5-((1R,3R)-2-(2,2-difluoroethyl)-3-methyl-2,3,4,9-tetrahydro-1H-pyrido[3,4-b]indol-1-yl)pyrimidin-2-yl)-3-azaspiro[5.5]undecan-9-yl)-8-oxo-1,2,3,4,4a,5,8,10-octahydro-9H-pyrazino[1′,2′:4,5][1,4]oxazino[2,3-f]isoindol-9-yl)piperidine-2,6-dione] | 0.01 to 0.1 µM | 0.001 to 0.01 µM |  |
| C[C@@H]1Cc2c([nH]c3ccccc23)[C@@H](c2cnc(N3CCC4(CCC(N5CCN6c7cc8c(cc7OC[C@@H]6C5)C(=O)N(C5CCC(=O)NC5=O)C8)CC4)CC3)nc2)N1CC(C)(C)F (stereo partly drawn) [Compound B139, 3-((S)-3-(3-(5-((1R,3R)-2-(2-fluoro-2-methylpropyl)-3-methyl-2,3,4,9-tetrahydro-1H-pyrido[3,4-b]indol-1-yl)pyrimidin-2-yl)-3-azaspiro[5.5]undecan-9-yl)-8-oxo-1,2,3,4,4a,5,8,10-octahydro-9H-pyrazino[1′,2′:4,5][1,4]oxazino[2,3-f]isoindol-9-yl)piperidine-2,6-dione] | < 0.01 µM | 0.001 to 0.01 µM |  |
| COc1cc(N2CCC3(CC2)CC(CN2CCC4(CC2)COc2c4ccc4c2CN(C2CCC(=O)NC2=O)C4=O)C3)ccc1[C@@H]1c2[nH]c3ccccc3c2C[C@@H](C)N1CC(F)F (stereo partly drawn) [Compound B140, 3-(1′-((7-(4-((1R,3R)-2-(2,2-difluoroethyl)-3-methyl-2,3,4,9-tetrahydro-1H-pyrido[3,4-b]indol-1-yl)-3-methoxyphenyl)-7-azaspiro[3.5]nonan-2-yl)methyl)-6-oxo-6,8-dihydro-2H,7H-spiro[furo[2,3-e]isoindole-3,4′-piperidin]-7-yl)piperidine-2,6-dione] | < 0.01 µM | < 0.001 µM |  |
| C[C@@H]1Cc2c([nH]c3ccccc23)[C@@H](c2ccc(N3CCC4(CC3)CC(CN3CCC5(CC3)COc3c5ccc5c3CN(C3CCC(=O)NC3=O)C5=O)CO4)cn2)N1CC(F)(F)F (stereo partly drawn) [Compound B145, 3-(1′-((8-(6-((1S,3R)-3-methyl-2-(2,2,2-trifluoroethyl)-2,3,4,9-tetrahydro-1H-pyrido[3,4-b]indol-1-yl)pyridin-3-yl)-1-oxa-8-azaspiro[4.5]decan-3-yl)methyl)-6-oxo-6,8-dihydro-2H,7H-spiro[furo[2,3-e]isoindole-3,4′-piperidin]-7-yl)piperidine-2,6-dionc] | < 0.01 µM | < 0.001 µM |  |

Continued, in another order:

| DC50 (ER) | Compound | IC50 ([1]; 96 h) | IC50 [1] |
| --- | --- | --- | --- |
| < 0.01 µM | COc1cc(N2CCC3(CC2)CC(CN2CCN4c5cc6c(cc5OC[C@@H]4C2)C(=O)N(C2CCC(=O)NC2=O)C6)C3)ccc1[C@@H]1c2[nH]c3ccccc3c2C[C@@H](C)N1CC(F)F (stereo partly drawn) [Compound B141, 3-((S)-3-((7-(4-((1R,3R)-2-(2,2-difluoroethyl)-3-methyl-2,3,4,9-tetrahydro-1H-pyrido[3,4-b]indol-1-yl)-3-methoxyphenyl)-7-azaspiro[3.5]nonan-2-yl)methyl)-8-oxo-1,2,3,4,4a,5,8,10-octahydro-9H-pyrazino[1′,2′:4,5][1,4]oxazino[2,3-f]isoindol-9-yl)piperidine-2,6-dione] | 0.001 to 0.01 µM |  |
| 0.01 to 0.1 µM | COc1cc(N2CCC3(CC2)CC(CN2CCN4c5cc6c(cc5OC[C@@H]4C2)C(=O)N(C2CCC(=O)NC2=O)C6)CO3)ccc1[C@@H]1c2[nH]c3ccccc3c2C[C@@H](C)N1CC(F)F (stereo partly drawn) [Compound B142, 3-((4aS)-3-((8-(4-((1R,3R)-2-(2,2-difluoroethyl)-3-methyl-2,3,4,9-tetrahydro-1H-pyrido[3,4-b]indol-1-yl)-3-methoxyphenyl)-1-oxa-8-azaspiro[4.5]decan-3-yl)methyl)-8-oxo-1,2,3,4,4a,5,8,10-octahydro-9H-pyrazino[1′,2′:4,5][1,4]oxazino[2,3-f]isoindol-9-yl)piperidine-2,6-dione] | < 0.001 µM |  |
| < 0.01 µM | COc1cc(N2CCC3(CC2)CC(CN2CCN4c5ccc6c(c5OC[C@H]4C2)CN(C2CCC(=O)NC2=O)C6=O)CO3)ccc1[C@@H]1c2[nH]c3ccccc3c2C[C@@H](C)N1CC(F)F (stereo partly drawn) [Compound B143, 3-((5aR)-7-((8-(4-((1R,3R)-2-(2,2-difluoroethyl)-3-methyl-2,3,4,9-tetrahydro-1H-pyrido[3,4-b]indol-1-yl)-3-methoxyphenyl)-1-oxa-8-azaspiro[4.5]decan-3-yl)methyl)-1-oxo-1,3,5,5a,6,7,8,9-octahydro-2H-pyrazino[1′,2′:4,5][1,4]oxazino[2,3-e]isoindol-2-yl)piperidine-2,6-dione] | < 0.001 µM |  |
| < 0.01 µM | COc1cc(N2CCC3(CC2)CC(CN2CCN4c5ccc6c(c5OC[C@H]4C2)CN(C2CCC(=O)NC2=O)C6=O)CO3)ccc1[C@@H]1c2[nH]c3ccccc3c2C[C@@H](C)N1CC(F)F (stereo partly drawn) [Compound B144, (3S)-3-((5aR)-7-((8-(4-((1R,3R)-2-(2,2-difluoroethyl)-3-methyl-2,3,4,9-tetrahydro-1H-pyrido[3,4-b]indol-1-yl)-3-methoxyphenyl)-1-oxa-8-azaspiro[4.5]dccan-3-yl)methyl)-1-oxo-1,3,5,5a,6,7,8,9-octahydro-2H-pyrazino[1′,2′:4,5][1,4]oxazino[2,3-e]isoindol-2-yl)piperidine-2,6-dione] |  | < 0.001 µM |
| 0.01 to 0.1 µM | C[C@@H]1Cc2c([nH]c3ccccc23)[C@@H](c2ccc(N3CCC4(CC3)CC(CN3CCN5c6ccc7c(c6OC[C@H]5C3)CN([C@H]3CCC(=O)NC3=O)C7=O)CO4)cn2)N1CC(F)(F)F (stereo partly drawn) [Compound B146, (3S)-3-((5aR)-7-((8-(6-((1S,3R)-3-methyl-2-(2,2,2-trifluoroethyl)-2,3,4,9-tetrahydro-1H-pyrido[3,4-b]indol-1-yl)pyridin-3-yl)-1-oxa-8-azaspiro[4.5]decan-3-yl)methyl)-1-oxo-1,3,5,5a,6,7,8,9-octahydro-2H-pyrazino[1′,2′:4,5][1,4]oxazino[2,3-e]isoindol-2-yl)piperidine-2,6-dione] | 0.001 to 0.01 µM |  |
| 0.01 to 0.1 µM | C[C@@H]1Cc2c([nH]c3ccccc23)[C@@H](c2ccc(N3CCC4(CC3)CC(CN3CCN5c6cc7c(cc6OC[C@@H]5C3)C(=O)N(C3CCC(=O)NC3=O)C7)CO4)cn2)N1CC(F)(F)F (stereo partly drawn) [Compound B147, 3-((4aS)-3-((8-(6-((1S,3R)-3-methyl-2-(2,2,2-trifluoroethyl)-2,3,4,9-tetrahydro-1H-pyrido[3,4-b]indol-1-yl)pyridin-3-yl)-1-oxa-8-azaspiro[4.5]dccan-3-yl)methyl)-8-oxo-1,2,3,4,4a,5,8,10-octahydro-9H-pyrazino[1′,2′:4,5][1,4]oxazino[2,3-f]isoindol-9-yl)piperidine-2,6-dione] | 0.001 to 0.01 µM |  |
